Molecular target: T1, F508del (Homo sapiens, UniProt P13569, DEL508-508)
T1 construct: expressed in transfected cells
Assay: Protocol 1: membrane potential optical assay (FLIPR III, voltage sensing dye), identification of potentiator compounds
Type: cell-based
Conditions: Table 3, compounds of Table 1
In short: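 Mouse NIH 3T3 fibroblasts stably expressing F508del, temperature-corrected at 27 °C for 24 h, pretreated with compound, then loaded with voltage-sensing redistribution dye. Forskolin was added in a single step with a chloride gradient (chloride-free gluconate bath; Bath Solution #1 HEPES pH 7.4). Membrane-potential fluorescence read on FLIPR III.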

T1 sequence (P13569 with tags, fused parts or gaps DEL508-508): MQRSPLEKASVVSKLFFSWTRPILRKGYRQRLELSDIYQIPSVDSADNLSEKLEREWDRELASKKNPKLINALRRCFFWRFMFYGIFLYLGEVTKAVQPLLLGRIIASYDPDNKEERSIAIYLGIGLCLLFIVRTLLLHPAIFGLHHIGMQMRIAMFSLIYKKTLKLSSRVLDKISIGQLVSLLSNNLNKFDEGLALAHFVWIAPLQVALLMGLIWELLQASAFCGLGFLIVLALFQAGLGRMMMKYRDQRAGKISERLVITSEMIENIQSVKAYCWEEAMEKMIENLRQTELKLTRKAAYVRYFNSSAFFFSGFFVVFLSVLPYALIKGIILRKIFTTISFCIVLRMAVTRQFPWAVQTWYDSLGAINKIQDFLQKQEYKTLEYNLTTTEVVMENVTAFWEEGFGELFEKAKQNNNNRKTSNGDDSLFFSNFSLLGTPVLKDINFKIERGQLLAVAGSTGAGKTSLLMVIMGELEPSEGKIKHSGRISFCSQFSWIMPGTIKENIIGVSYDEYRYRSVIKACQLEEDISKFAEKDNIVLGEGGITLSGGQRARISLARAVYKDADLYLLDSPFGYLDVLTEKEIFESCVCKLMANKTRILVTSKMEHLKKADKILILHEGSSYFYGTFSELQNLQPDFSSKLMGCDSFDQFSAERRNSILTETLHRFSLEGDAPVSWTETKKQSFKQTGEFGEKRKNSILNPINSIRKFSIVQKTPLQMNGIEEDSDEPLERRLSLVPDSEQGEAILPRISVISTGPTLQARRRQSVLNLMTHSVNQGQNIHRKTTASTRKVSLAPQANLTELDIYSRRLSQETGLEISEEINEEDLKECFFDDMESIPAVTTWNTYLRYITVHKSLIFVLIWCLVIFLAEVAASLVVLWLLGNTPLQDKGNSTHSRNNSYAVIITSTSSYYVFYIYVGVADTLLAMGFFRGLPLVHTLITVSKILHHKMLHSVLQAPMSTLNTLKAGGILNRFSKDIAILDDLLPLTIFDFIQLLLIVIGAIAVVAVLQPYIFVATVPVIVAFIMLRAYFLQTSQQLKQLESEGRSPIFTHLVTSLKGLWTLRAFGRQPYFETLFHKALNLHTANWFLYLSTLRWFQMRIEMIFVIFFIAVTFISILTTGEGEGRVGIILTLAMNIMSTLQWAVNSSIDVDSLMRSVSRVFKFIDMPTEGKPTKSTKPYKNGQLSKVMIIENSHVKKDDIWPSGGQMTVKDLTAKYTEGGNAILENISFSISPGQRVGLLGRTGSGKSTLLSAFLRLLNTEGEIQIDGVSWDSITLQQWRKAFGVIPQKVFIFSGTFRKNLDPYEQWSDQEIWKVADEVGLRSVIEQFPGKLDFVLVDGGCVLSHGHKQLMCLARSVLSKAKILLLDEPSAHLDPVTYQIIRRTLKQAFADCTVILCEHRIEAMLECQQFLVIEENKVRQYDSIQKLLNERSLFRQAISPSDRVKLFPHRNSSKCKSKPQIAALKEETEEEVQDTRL

Row | EC30 | SMILES
1 | ++ (“++” means between 3 uM and 10 uM) | Cc1cc(C)c(Oc2nc(-c3ccccc3)ccc2C(=O)NS(=O)(=O)c2cccc(NCCN)n2)c(C)c1 [Compound 1027, N-[[6-(2-aminoethylamino)-2-pyridyl]sulfonyl]-6-phenyl-2-(2,4,6-trimethylphenoxy)pyridine-3-carboxamide]
2 | ++ (“++” means between 3 uM and 10 uM) | CCOc1ccc(F)c(-c2ccc(C(=O)NS(=O)(=O)c3ccc[nH]c3=O)c(Oc3c(C)cc(C)cc3C)n2)c1 [Compound 1301, 6-(5-ethoxy-2-fluoro-phenyl)-N-[(2-oxo-1H-pyridin-3-yl)sulfonyl]-2-(2,4,6-trimethylphenoxy)pyridine-3-carboxamide]
3 | +++ (“+++” means <3 uM) | C[C@@H]1CN(c2nc(-c3ccc(O)cc3)ccc2C(=O)NS(=O)(=O)c2cccnc2N)C(C)(C)C1 [Compound 1712, N-[(2-amino-3-pyridyl)sulfonyl]-6-(4-hydroxyphenyl)-2-[(4S)-2,2,4-trimethylpyrrolidin-1-yl]pyridine-3-carboxamide]
4 | +++ (“+++” means <3 uM) | COc1ccccc1S(=O)(=O)NC(=O)c1ccc(C(C)(C)C)nc1-c1ccc(C)cc1 [Compound 1124, 6-tert-butyl-N-(2-methoxyphenyl)sulfonyl-2-(p-tolyl)pyridine-3-carboxamide]
5 | +++ (“+++” means <3 uM) | CCCc1ccc2c(c1)cc(C(=O)NS(=O)(=O)c1cccc(N)n1)n2Cc1c(C)cc(C)cc1C [Compound 1158, N-[(6-amino-2-pyridyl)sulfonyl]-5-propyl-1-[(2,4,6-trimethylphenyl)methyl]indole-2-carboxamide]
6 | +++ (“+++” means <3 uM) | CC1CN(c2ncc(C3=CC4CCC3(C)C4(C)C)cc2C(=O)NS(=O)(=O)c2cccc(N)n2)C(C)(C)C1 (centres unmarked) [Compound 1544, N-[(6-amino-2-pyridyl)sulfonyl]-5-(4,7,7-trimethyl-3-bicyclo[2.2.1]hept-2-enyl)-2-(2,2,4-trimethylpyrrolidin-1-yl)pyridine-3-carboxamide]
7 | +++ (“+++” means <3 uM) | COc1ccc(-c2ccc(C(=O)NS(=O)(=O)c3cccc(N)n3)c(Oc3c(C)cc(C)cc3C)n2)c(F)c1 [Compound 956, N-[(6-amino-2-pyridyl)sulfonyl]-6-(2-fluoro-4-methoxy-phenyl)-2-(2,4,6-trimethylphenoxy)pyridine-3-carboxamide]
8 | +++ (“+++” means <3 uM) | Cc1cc(C)c(Oc2nc(C3(C)CC3)ccc2C(=O)NS(=O)(=O)c2cccc(N)n2)c(C)c1 [Compound 1310, N-[(6-amino-2-pyridyl)sulfonyl]-6-(1-methylcyclopropyl)-2-(2,4,6-trimethylphenoxy)pyridine-3-carboxamide]
9 | +++ (“+++” means <3 uM) | Cc1cc(C)c(Oc2nc(C3=CCC(C(C)C)CC3)ccc2C(=O)NS(=O)(=O)c2cccc(N)n2)c(C)c1 (centres unmarked) [Compound 1630, N-[(6-amino-2-pyridyl)sulfonyl]-6-(4-isopropylcyclohexen-1-yl)-2-(2,4,6-trimethylphenoxy)pyridine-3-carboxamide]
10 | +++ (“+++” means <3 uM) | C[C@@H]1CN(c2nc(C3=CN(C(=O)OC(C)(C)C)CC3)ccc2C(=O)NS(=O)(=O)c2cccc(N)n2)C(C)(C)C1 [Compound 1684, tert-butyl 4-[5-[(6-amino-2-pyridyl)sulfonylcarbamoyl]-6-[(4S)-2,2,4-trimethylpyrrolidin-1-yl]-2-pyridyl]-2,3-dihydropyrrole-1-carboxylate]
11 | + (“+” means greater than 10 uM) | CC(c1ccccc1)n1nc(C(C)(C)C)cc1C(=O)NS(=O)(=O)c1cccc(N)c1 (centres unmarked) [Compound 799, N-(3-aminophenyl)sulfonyl-5-ter-butyl-2-(1-phenylethyl)pyrazole-3-carboxamide]
12 | +++ (“+++” means <3 uM) | CCOc1cc(F)cc(-c2ccc(C(=O)NS(=O)(=O)c3cccc(N)n3)c(N3CC(C)CC3(C)C)n2)c1 (centres unmarked) [Compound 1099, N-[(6-amino-2-pyridyl)sulfonyl]-6-(3-ethoxy-5-fluoro-phenyl)-2-(2,2,4-trimethylpyrrolidin-1-yl)pyridine-3-carboxamide]
13 | +++ (“+++” means <3 uM) | CC1CN(c2ncccc2C(=O)NS(=O)(=O)c2cccc(OCc3cccc(C(F)(F)F)c3)n2)C(C)(C)C1 (centres unmarked) [Compound 1953, N—[[6-[[3-(trifluoromethyl)phenyl]methoxy]-2-pyridyl]sulfonyl]-2-(2,2,4-trimethylpyrrolidin-1-yl)pyridine-3-carboxamide]
14 | ++ (“++” means between 3 uM and 10 uM) | CC1CN(c2nc(-c3cnc(OC(C)C)nc3)ccc2C(=O)NS(=O)(=O)c2cccc(N)n2)C(C)(C)C1 (centres unmarked) [Compound 844, N-[(6-amino-2-pyridyl)sulfonyl]-6-(2-isopropoxypyrimidin-5-yl)-2-(2,2,4-trimethylpyrrolidin-1-yl)pyridine-3-carboxamide]
15 | +++ (“+++” means <3 uM) | CC1CN(c2ncccc2C(=O)NS(=O)(=O)c2cccc(Nc3ccc4ncsc4c3)n2)C(C)(C)C1 (centres unmarked) [Compound 1775, N—[[6-(1,3-benzothiazol-6-ylamino)-2-pyridyl]sulfonyl]-2-(2,24-trimethylpyrrolidin-1-yl)pyridine-3-carboxamide]
16 | +++ (“+++” means <3 uM) | Cc1cc(C)c(Oc2nc(-c3cnn(CC(C)C)c3)ccc2C(=O)NS(=O)(=O)c2nccnc2N)c(C)c1 [Compound 1103, N-(3-aminopyrazin-2-yl)sulfonyl-6-(1-isobutylpyrazol-4-yl)-2-(2,4,6-trimethylphenoxy)pyridine-3-carboxamide]
17 | + (“+” means greater than 10 uM) | Cc1cccc(C)c1Cn1nc(-c2cnc(N(C)C)nc2)cc1C(=O)NS(=O)(=O)c1ccccc1 [Compound 1678, N-(benzenesulfonyl)-5-[2-(dimethylamino)pyrimidin-5-yl]-2-[(2,6-dimethylphenyl)methyl]pyrazole-3-carboxamide]
18 | +++ (“+++” means <3 uM) | CCOc1cccc2c1CN(Cc1c(C)cc(C)cc1C)C2(C)C(=O)NS(=O)(=O)c1ccncc1 (centres unmarked) [Compound 1449, 4-ethoxy-1-methyl-N-(4-pyridylsulfonyl)-2-[(2,4,6-trimethylphenyl)methyl]isoindoline-1-carboxamide]
19 | ++ (“++” means between 3 uM and 10 uM) | COc1ccc(-c2ccc(C(=O)NS(=O)(=O)c3ccc[nH]c3=O)c(N3C[C@@H](C)CC3(C)C)n2)c(F)c1 [Compound 1858, 6-(2-fluoro-4-methoxy-phenyl)-N-[(2-oxo-1H-pyridin-3-yl)sulfonyl]-2-[(4S)-2,2,4-trimethylpyrrolidin-1-yl]pyridine-3-carboxamide]
20 | +++ (“+++” means <3 uM) | CC(=O)c1cccc(Nc2cccc(S(=O)(=O)NC(=O)c3cccnc3N3CC(C)CC3(C)C)n2)c1 (centres unmarked) [Compound 1949, N—[[6-(3-acetylanilino)-2-pyridyl]sulfonyl]-2-(2,2,4-trimethylpyrrolidin-1-yl)pyridine-3-carboxamide]
21 | ++ (“++” means between 3 uM and 10 uM) | CC(C)Oc1ccc(-c2ccc(C(=O)NS(=O)(=O)c3cccc(N)n3)c(N3CCC(OCC4CC4)CC3)n2)cn1 [Compound 884, N-[(6-amino-2-pyridyl)sulfonyl]-2-[4-(cyclopropylmethoxy)-1-piperidyl]-6-(6-isopropoxy-3-pyridyl)pyridine-3-carboxamide]

Row | SMILES | EC30
22 | CC(C)COc1cc(F)cc(-c2ccc(C(=O)NS(=O)(=O)c3cccc(N)n3)c(N3CC(C)CC3(C)C)c2F)c1 (centres unmarked) [Compound 1497, N-[(6-amino-2-pyridyl)sulfonyl]-3-fluoro-4-(3-fluoro-5-isobutoxy-phenyl)-2-(2,2,4-trimethylpyrrolidin-1-yl)benzamide] | +++ (“+++” means <3 uM)
23 | CC(C)COc1cc(F)cc(-c2ccc(C(=O)NS(=O)(=O)N3CCCC(C)(NC(=O)OC(C)(C)C)C3)c(N3CC(C)CC3(C)C)n2)c1 (centres unmarked) [Compound 1520, tert-butyl N—[1-[[6-(3-fluoro-5-isobutoxy-phenyl)-2-(2,2,4-trimethylpyrrolidin-1-yl)pyridine-3-carbonyl]sulfamoyl]-3-methyl-3-piperidyl]carbamate] | +++ (“+++” means <3 uM)
24 | CC(C)COc1cc(F)cc(-c2ccc(C(=O)NS(=O)(=O)c3cccc(N)n3)c(C3=CC(C)(C)OC(C)(C)C3)n2)c1 [Compound 1368, N-[(6-amino-2-pyridyl)sulfonyl]-6-(3-fluoro-5-isobutoxy-phenyl)-2-(2,2,6,6-tetramethyl-3H-pyran-4-yl)pyridine-3-carboxamide] | +++ (“+++” means <3 uM)
25 | CC(C)(C)c1ccc(C(=O)NS(=O)(=O)c2cccc(N)n2)c(OC2CCC2)n1 [Compound 1154, N-[(6-amino-2-pyridyl)sulfonyl]-6-tert-butyl-2-(cyclobutoxy)pyridine-3-carboxamide] | ++ (“++” means between 3 uM and 10 uM)
26 | CC(C)COc1cc(F)cc(-c2ccc(C(=O)NS(=O)(=O)c3cccc(N)n3)c(OCCC(C)c3ccccc3)n2)c1 (centres unmarked) [Compound 1689, N-[(6-amino-2-pyridyl)sulfonyl]-6-(3-fluoro-5-isobutoxy-phenyl)-2-(3-phenylbutoxy)pyridine-3-carboxamide] | +++ (“+++” means <3 uM)
27 | CC(C)COc1cc(F)cc(-c2ccc(C(=O)NS(=O)(=O)c3cccc(N)n3)c(OCC3(F)COC3)n2)c1 [Compound 1053, N-[(6-amino-2-pyridyl)sulfonyl]-6-(3-fluoro-5-isobutoxy-phenyl)-2-[(3-fluorooxetan-3-yl)methoxy]pyridine-3-carboxamide] | ++ (“++” means between 3 uM and 10 uM)
28 | CC(C)COc1cc(F)cc(-c2ccc(C(=O)NS(=O)(=O)C3CCOC3)c(N3C[C@@H](C)CC3(C)C)n2)c1 (stereo partly drawn) [Compound 1640, 6-(3-fluoro-5-isobutoxy-phenyl)-N-tetrahydrofuran-3-ylsulfonyl-2-[(4S)-2,2,4-trimethylpyrrolidin-1-yl]pyridine-3-carboxamide] | +++ (“+++” means <3 uM)
29 | CC1CCC(Oc2cccc(S(=O)(=O)NC(=O)c3cccnc3N3CC(C)CC3(C)C)n2)C1 (centres unmarked) [Compound 1884, N—[[6-(3-methylcyclopentoxy)-2-pyridyl]sulfonyl]-2-(2,2,4-trimethylpyrrolidin-1-yl)pyridine-3-carboxamide] | +++ (“+++” means <3 uM)

— US10758534B2 (Vertex Pharmaceuticals Incorporated, priority 2014, dated 2020)
